Results: patent publication US20240189289A1, “INHIBITORS OF EPHB3 SIGNALING” (The Brigham and Women`s Hospital, Inc., priority 2021, published 2024)

Tests used:
[1] = test system: PI3K/AKT/mTOR signaling in astrocytes; experiment: Western blot of PI3K/AKT/mTOR/NF-κB signaling in primary murine astrocytes; format: cell-based, mouse
Procedure: Mouse primary astrocyte cultures. […] The cell suspension was then cultured at 37° C. in humidified 5% CO2 on poly-L-Lysine (#P4707, Sigma-Aldrich) pre-coated cell culture flasks. Medium was replaced every 3-5 days. The cells reached confluence after 7-10 days. Microglia were separated by shaking the glia culture at 225 rpm at 37° C. for at least 3 h and washing extensively with 1×PBS. Astrocytes were detached by mild trypsinization with Trypsin-EDTA (0.05%) at 37° C. and plated. […] Both cell types were then cultured separately for downstream procedures. […] Finally, microglia and astrocytes of each condition where magnetically separated as before and lysed for downstream gene expression analysis.
SDS-PAGE and Western blot. […] Membranes were blocked in 10% skimmed milk (#M0841, Lab Scientific) in TBS-T (#IBB-180-2L, Boston BioProducts). Primary antibodies were incubated ON at 4° C. and secondary 30 minutes at RT.
HRP-conjugated blots were developed using the KwikQuant imaging system and KwikQuant western blot detection kit (#R1004 Kindle Biosciences).

EAE in C57BL/6 mice = EAE in C57BL/6 mice (MOG35-55); format: in vivo, mouse
Procedure: EAE. EAE was induced in 8-10 week old female C57BL/6 or NOD by subcutaneous immunization with 150 μg MOG35-55 (#110582, Genemed Synthesis) emulsified in 200 μL of complete Freund's adjuvant per mouse, followed by administration of 200 ng pertussis toxin (#180, List biological Laboratories) on days 0 and 2 as described. […] EAE was assessed as follows: 0, no signs of disease; 1, loss of tone in the tail; 2, hind limb paresis; 3, hind limb paralysis; 4, tetraplegia; 5, moribund.
Mononuclear cells. Mononuclear cells, including astrocytes, monocytes, and microglia, were isolated from the CNS as described. Briefly, mice were perfused with 1×PBS and the isolated brain and spinal cords were homogenized with a razor blade, digested in 0.66 mg/mL papain (#P4762, Sigma-Aldrich) for 15 minutes at 37° C. and subsequently 15 minutes with 0.66 mg/mL Collagenase D (#11088858001, Roche) and 8 U/mL DNase I (#90083, Thermo Fisher Scientific). Samples where then homogenized and filtered through a 70 µm cell strainer and resuspended in 30% Percoll TM solution (#17-5445-01, GE Healthcare) overlayed by 1×PBS for myelin removal. Isolated mononuclear CNS cells were washed with 1×PBS and stained with fluorochrome-conjugated antibody to FITC anti-CD11b (Cat #11-0112-85, eBioscience), APC anti-CD45 (Cat #17-0451-83, eBioscience), BV421 anti-Ly-6C (Cat #128031, Biolegend), PE anti-mouse CD45R/B220 (Cat #553089, BD Biosciences), PE anti-CD140a (Cat #12-1401-81, eBioscience), PE anti-CD105 (Cat #12-1051-82, eBioscience), PE anti-04 (Cat #FAB1326P, R&D), PE anti-Ly-6G (Cat #127608, BioLegend) and PE anti-mouse TER-119 (Cat #116207, BioLegend). Microglia were sorted as CD11b^+CD45^lo Ly6C1^lo, inflammatory monocytes were considered as CD45^hiCD11b^+Ly6C1^hi. Astrocytes were sorted as CD11b^loCD45^lo Ly6C^loCD105^lo CD140a^lo CD11b^loTer119^loCD19^lo after the exclusion of erythrocytes, lymphocytes, microglia, oligodendrocytes, and monocytes. FACSAria IIU (BD Biosciences) was used for cell sorting.
Analysis of T cells. For T-cell flow cytometry analysis, CNS single-cell suspensions or splenocytes were stimulated with 50 ng/mL phorbol 12-myristate 13-acetate (PMA, #P1585, Sigma-Aldrich), 1 μM ionomycin (#I9657, Sigma-Aldrich), GolgiSTOP and (#554724, BD Biosciences, 1:1500) GolgiPLUG (#555029, BD Biosciences, 1:1500) in RPMI 1640 medium (#11875119, Life Technologies) containing 10% FBS (#10438026, GIBCO), penicillin/streptomycin (#15140122, GIBCO, 1:100) for 4 h at 37° C. in a 5% CO2 incubator. Following stimulation, T cells were stained with antibodies against surface markers, and thereafter fixed and stained with antibody against intracellular target protein with an intracellular antibody labeling kit following its instructions (#00-5523, eBioscience).
RNA-sequencing. Sorted astrocytes or microglia were re-suspended in extraction buffer of Picopure RNA isolation kit (KIT0204, Thermo Fisher) and after 30 min incubation at 42° C. samples were extracted following manufacturer's instructions with on-column DNase I digestion (QIAGEN, #79254). RNA was suspended in 10 μl of nuclease free water and 5 μl were sent for SMARTseq sequencing by the Broad Technology Labs and the Broad Genomics Platform. Processed RNA-Seq data was filtered, removing genes with low read counts. Read counts were normalized using TMM normalization and CPM (counts per million) were calculated to create a matrix of normalized expression values.
H&E, LFB and silver staining. Transverse sections from lumbar spinal cords of EAE mice at the end of the experiment were fixed in 4% paraformaldehyde, pH 7.4, embedded in paraffin and cut at 10-μm thickness. Sections were stained with Hematoxylin and Eosin, Luxol fast blue, or silver nitrate. Images were acquired by using a Zeiss Axioskop2 plus microscope with AxioCam HRC and AxioVision software and analyzed by using ImageJ software. […]

astrocytes = experiment: Mitochondrial ROS measurement (MitoSOX) in astrocytes; format: cell-based, mouse; settings: induced by stimulation with TNFα and IL-1β
Procedure: Mitochondrial ROS measurement. 50,000 astrocytes were seeded per well in 96-well black plates and rested for 2 days in complete medium, followed by activation or inhibitor pretreatment for 24 h. MitoSOX red (Thermo Fisher Scientific, #M36008) was used to stain for mitochondrial ROS for 10 min following the manual and the signal was detected on Infinite M1000 PRO Microplate Reader (Tecan). The fluorescent signal was normalized to cell number estimated using CyQUANT cell proliferation assay kit (Invitrogen, #C7026) first and then compared to control group for data analysis.

[2] = Mouse liver microsome stability; format: in vitro ADME; settings: mouse liver microsomes; read-out: mouse liver microsome stability T1/2
[3] = astrocytes activated 30 minutes with TNFα and IL-1β
[4] = astrocytes stimulated with TNFα and IL-1β
[5] = 20 mg/kg from the peak of the disease
[6] = daily intraperitoneal injections

SMILES: O=C(Nc1ccccc1Cl)c1cnc2ccc(C3CCNCC3)cn12 [A38]
- phosphorylation of AKT [1, 3]: suppressed
- phosphorylation of p85a, p55a [1, 3]: suppressed
- NF-κB activation (p65 phosphorylation and nuclear translocation) [1, 4]: did not suppress NF-κB activation
- S6 phosphorylation [1, 4]: suppressed S6 phosphorylation
- T-cell response (EAE in C57BL/6 mice; [5]): did not affect T-cell response
- astrocyte and microglial expression of transcriptional modules associated with CNS inflammation and neurodegeneration (RNA-seq) (EAE in C57BL/6 mice; [5]): decreased
- axonal loss (histopathology) (EAE in C57BL/6 mice; [5]): reduced demyelination, and axonal loss
- demyelination (histopathology) (EAE in C57BL/6 mice; [5]): reduced demyelination
- recruitment of Ly6C^Hi pro-inflammatory monocytes to the CNS (EAE in C57BL/6 mice; [5]): reduced the recruitment
- EAE clinical scores (EAE in C57BL/6 mice; 20 mg/kg i.p. twice a day from the peak of the disease): ameliorated EAE, as indicated by the reduction in clinical scores
- expression of genes related to ROS metabolic processes in astrocytes isolated from treated EAE mice (EAE in C57BL/6 mice; FIG. 5D): a decrease in the expression
- therapeutic effects of A38 concomitant with EphB3 knockdown in astrocytes (EAE in C57BL/6 mice; compared with either intervention alone): did not further increase the therapeutic effects
- T cell counts in the spleen (EAE in C57BL/6 mice; [6]): unchanged
- pro-inflammatory monocytes in the CNS (EAE in C57BL/6 mice; [6]): decrease
- course of EAE, preventive treatment (EAE in C57BL/6 mice; daily intraperitoneal injections from day 3 (priming phase)): did not alter the course of EAE
- clinical course of EAE, treatment during the chronic phase (EAE in C57BL/6 mice; daily intraperitoneal injections from day 21): ameliorated the clinical course significantly
- IFN-γ and IL-17 producing T cells in the CNS (EAE in C57BL/6 mice; daily intraperitoneal injections, chronic phase): significant decrease
- mitochondrial production of ROS (astrocytes): decreased
- half-life [2]: > 5 h
